Test results published in paper PMC10386076, “Discovery of RC-752, a Novel Sigma-1 Receptor Antagonist with Antinociceptive Activity: A Promising Tool for Fighting Neuropathic Pain” (Pharmaceuticals, 2023).
Entries after “also recorded” stand apart in the source; their conditions may differ. Where two headings read alike, the source gives them in different places.

Tests used:
[1] = test system: PC12 cells; experiment: NGF-induced neurite outgrowth assay in PC12 cells; type: cell-based; settings: for effect on percentage of differentiated PC12 cells, co-administration with PRE-084: 0.25 μM and 2.5 μM with 10 μM PRE-084, vs PRE-084; for effect on NGF-induced neurite outgrowth, compound alone: 0.25 μM and 2.5 μM, vs NGF
Experimental: At 80% confluence, the cells were either split to allow a further culture expansion or plated onto 48-well flat-bottom plates previously coated with poly-L-ornithine (Sigma Aldrich, Milan, Italy) at the final concentration of 10 μg/cm^2. The cells were plated at low density (2500 cells/well) to allow proper neurite elongation. The PC12 cells were mechanically detached from the flask to avoid cell-surface receptor cleavage and to preserve the correct binding of NGF to the TrkA receptors. To minimize detachment stress, the cells were left in PM for 24 h to recover. […] PRE-084 (10 µM), an S1R agonist, was used to verify that the effects of the selected compounds were due to the S1R modulation. In CTR conditions, the cells were incubated with the drug vehicle. For all the ligands, two replicates per concentration were performed in at least 3 experiments with different PC12 batches.
After 72 h incubation in DM, the cells were fixed with a 4% paraformaldehyde solution (pH 7.4). To allow the neurite visualization with a bright-field microscope, the cells were stained with the Harris Hematoxylin solution (Sigma Aldrich). After staining, images of six fields per well were acquired with a digital camera linked to a bright-field inverted microscope (Optika) (20× magnification). […] Only the cells bearing a neurite as long as their soma’s diameter were identified as differentiated cells. The number of differentiated cells was expressed as the percentage of differentiated cells over the total number of cells.

[2] = test system: HeLa cells; experiment: AQP-mediated osmotic water permeability assay (stopped-flow light scattering); settings: pre-treatment 20 μM, heat stress 42 °C 3 h
Experimental: As an orthogonal assay to determine the functional profile of our compounds, the effect on AQP-mediated water permeability was investigated. AQPs are a family of transmembrane proteins involved in the transport of water and other small molecules (e.g., H2O2) through cell membranes. AQP functions are thus critical in ensuring reactive oxygen species (ROS) scavenging and cell survival. […] Briefly, the osmotic water permeability of HeLa cells was measured by a stopped-flow light scattering method and expressed as a percentage of k relative.
Osmotic water permeability was measured in the HeLa cell suspension by the stopped-flow light scattering method, as previously described. The experiments were performed at 25 °C on the stopped-flow apparatus (RX2000, Applied Photophysics, Leatherhead, UK) with a pneumatic drive accessory (DA.1, Applied Photophysics) straightforwardly coupled with a Varian Cary 50 spectrometer (Varian Australia Pty Ltd., Mulgrave, Australia). Briefly, scattered light intensity with a dead time of 6 ms was recorded at a wavelength of 450 nm. […] To evaluate the effect of the test compounds on water permeability, the HeLa cells were divided into different groups: (1) controls, cells incubated at r.t. (21 °C) in the presence of the same volume of methanol as that of the treated cells; (2) heat-stressed cells, cells heat-treated in a water thermostatic and shacking bath at 42 °C for 3 h; (3) heat-stressed cells pre-treated with the test compounds at a 20 µM final concentration (dissolved in methanol).

[3] = In vitro metabolic stability in mouse plasma; type: in vitro ADME; settings: after 240 min of incubation
Experimental: (§1) The in vitro metabolic stability of compound (R/S)-1d was evaluated in mouse plasma and hepatic microsomes.

[4] = In vitro metabolic stability in mouse liver microsomes; type: in vitro ADME; settings: oxidative conditions
Experimental: as §1
Mouse liver microsomes (Sigma Aldrich, CD-1 male, pooled) at 0.5 mg/mL were preincubated with the test compound (R/S)-1d dissolved in DMSO at 1 μM in phosphate buffer 50 mM, pH 7.4, and 3 mM MgCl2 for 10 min at 37 °C [75]. The reaction was then started by adding the cofactor mixture solution (NADP, glucose-6-phosphate, glucose-6-phosphate dehydrogenase in 2% NaHCO3). The samples were taken at 0, 10, 30, 45, and 60 min and added to acetonitrile to stop the reaction (n = 3). The samples were then centrifuged, and the supernatant was analyzed by LC-MS/MS to quantify the amount of compound. A control sample without cofactor was always added to check the chemical stability of the test compound. Two reference compounds of known metabolic stability, 7-ethoxycoumarin (7-EC) and propranolol, were present in parallel testing. A fixed concentration of verapamil was added to every sample as an internal standard for LC-MS/MS analyses. The percentage of the area of the test compound remaining at the various incubation times was calculated with respect to the area of the compound at time 0 min.
The intrinsic clearance (Cli) was calculated by the equation: Cli (μL/min/mg) = k/microsomal conc. × 1000 where k is the rate constant (min^−1) and the microsomal protein conc. = 0.5 mg protein/mL. The rate constant k (min^−1), derived for the exponential decay equation (peak area/IS vs. time), was used to calculate the rate of Cli.
The samples were analyzed under the following conditions: UFLC LC-20 Shimadzu coupled with an API 3200 triple-quadrupole (ABSciex); eluents, (phase A) water + 0.1% trifluoroacetic acid (TFA), (phase B) CH3CN + 0.1% TFA; flow rate, 0.3 mL/min; column, Gemini-Nx 5 μm C18 110A (50 × 2.00 mm) at 35 °C; and injection volume, 5 μL. LC–MS/MS analyses were carried out using an ESI(+) interface in a multiple reaction monitoring mode (MRM). The conditions and MRM transitions applied to the compounds are described in Table 3. […]

[5] = test system: mice; experiment: Formalin-induced licking paw test; type: in vivo; settings: Mus musculus
Experimental: This is a model of persistent pain in which the nociceptive response produced by formalin is quantified by measuring the time spent by the mouse licking the injected paw. The intraplantar administration of formalin (2%, 20 μL) produces a biphasic nocifensive behavioral response (i.e., biting or licking the injected hind paw). The acute nociceptive phase, reflecting the chemical activation of sensory C-fibers, lasts for the first 5 min, while the second inflammatory phase takes place between 20 and 30 min and corresponds with the development of nociceptive sensitization in the dorsal horn of the spinal cord.
ICR male mice weighing 20–25 g (5 weeks old) and SD rats weighing 200–250 g (7 weeks old) were used in the experiments. […]
The formalin-induced licking paw test was modified from the method described by Dubuisson and Dennis [79]. […] Each mouse was then placed in an individual clear plastic observational chamber (15 × 15 × 15), and the pain response was recorded for a period of 30 min. The summation of time (in seconds) spent in licking and biting responses of the injected paw during each 5 min block was measured as an indicator of the pain response. The first period (early phase) was recorded 0–5 min after the injection of formalin, and the second period (late phase) was recorded 20–30 min after the injection. […] The data were expressed as mean values (SEM). […]

[6] = test system: rats; experiment: Chung's neuropathic pain model (spinal nerve ligation), von Frey mechanical allodynia; type: in vivo, rat
Text: This procedure involves the surgical binding or tying off of the left L5 and L6 spinal nerves in rats and causes long-lasting behavioral signs of mechanical allodynia and ongoing pain. Mechanical allodynia refers to the perception of pain caused by normally non-painful stimuli, such as touch or pressure. […] Mechanical stimulation was then induced using von Frey filaments, a set of calibrated nylon fibers that are used to apply mechanical pressure to the skin or other tissues to measure pain sensitivity. The mechanical threshold for pain was established with the “up and down method”.
ICR male mice weighing 20–25 g (5 weeks old) and SD rats weighing 200–250 g (7 weeks old) were used in the experiments. All the animals were purchased from SAMTACO (Osan-si, Korea). Six mice/group and eight rats/group were used for this study. Four groups of mice were utilized for the assessment of the antinociceptive activity in the formalin test (one vehicle and three doses; 1, 10, and 20 mg/kg given i.p.), while five groups of rats were used for the assessment of the antinociceptive activity in Chung’s neuropathic pain model (one vehicle and four doses; 5, 10, 25 and 50 mg/kg given i.p.). The ICR mice and SD rats were maintained on a 12 hr light–dark cycle (light on between 7:00 p.m. and 7:00 a.m.) and allowed free access to food and water. The temperature and humidity of the animal room were maintained at 22 ± 2 °C and 50 ± 5%, respectively. In this study, we followed the national guidelines for conducting animal experiments. […] All efforts were made to minimize animal suffering and reduce the number of animals used.
Ligation of the left L5 and L6 spinal nerves in the rats was used as an experimental model of neuropathic pain. […] The surgical procedure was performed according to the method described by Kim and Chung [80]. The left L5 spinal nerve was isolated and ligated tightly with 6–0 black silk. The wound was closed in anatomical layers, with the skin being closed with stainless steel wound clips. The animals were then allowed to recover after the surgery. The behavioral signs representing neuropathic pain (mechanical allodynia) were examined in all the rats for 2 weeks postoperatively. The mechanical withdrawal threshold to the application of a von Frey filament (Stoelting, Wood Dale, IL, USA) was measured by using the up–down method [81].The most sensitive area was first determined by poking various areas of the paw with a von Frey hair. Next, the actual test was conducted by gently poking various areas of the spot with the filament. […] The frequency of foot withdrawal expressed as a percentage was used as the index of mechanical allodynia. […] The results were calculated using the one-way analysis of variance (ANOVA) followed by Bonferroni’s post hoc test. […]

Compound | effect on percentage of differentiated PC12 cells, co-administration with PRE-084 [1] | effect on NGF-induced neurite outgrowth, compound alone [1] | effect on water permeability in heat-stressed HeLa cells [2] | compound remaining unaltered [3] | half-life at 1 μM ([4]; male, CD-1, liver microsomes (pooled), pH 7.4, mouse hepatic microsomes 0.5 mg/mL, 1 μM) [min] | Cli ([4]; mouse hepatic microsomes 0.5 mg/mL, 1 μM) [µL/min/mg] | in vitro clearance classification ([4]; mouse hepatic microsomes) | effect on percentage of differentiated PC12 cells, co-administration with PRE-084 ([1]; listed as (R/S)-1d) | ED50 ([5]; read-out: ED50, first phase of the formalin test) [mg/kg] | ED50 ([5]; mice, i.p. 1, 10, 20 mg/Kg 30 min before formalin, 20–30 min, paw licking time, read-out: ED50, second phase of the formalin test) [mg/kg] | time the antinociceptive effect was extended ([6]; i.p. 50 mg/Kg) | antinociceptive effect (mechanical allodynia) ([6]; i.p. 5 and 10 mg/Kg) | time the antinociceptive effect was sustained ([6]; i.p. 25 and 50 mg/Kg) | antinociceptive effect (mechanical allodynia) ([6]; i.p. 25 and 50 mg/Kg, 30 min after administration)
CN(CCC(CO)c1ccc(-c2ccccc2)cc1)Cc1ccccc1 (stereo not shown) [Compound 1c, 3-([1,1’-biphenyl]-4-yl)-N-benzyl-4-hydroxy-N-methylbutanamine] | significantly reduced | did not significantly enhance | in line with that of S1R antagonists |  |  |  |  |  |  |  |  |  |  | 
OCC(CCN1CCCCC1)c1ccc(-c2ccccc2)cc1 (stereo not shown) [Compound 1d, 2-([1,1’-biphenyl]-4-yl)-4-(piperidin-1-yl)butan-1-ol] |  | did not significantly enhance | in line with that of S1R antagonists | approximately 100% | 7.2 ± 0.3 | 192 ± 7 | high clearance | significantly reduced; also recorded: most effective | 13 | 2.17 | up to 90 min | No significative effect | up to 60 min | restore the normal nociceptive functionality
